# Measurements reported in patent US10004701B2, “Methods and compositions for treating infection” (UNIVERSITY OF ROCHESTER, priority 2012, dated 2018).
# Counter-ions that a name gives are not always drawn. Like-named read-outs stand apart in the source and are kept apart here.
# Columns and labels:
# Experiment in all cases: AK assay 384-well format, Prestwick library screening
# E. coli = type: cell-based, Escherichia coli; conditions: for fold induction at 50 µM: Escherichia coli, 3 h
# [1] = test system: S. aureus strain USA300-0114; type: cell-based, Staphylococcus aureus; conditions: for fold induction at 50 µM: Staphylococcus aureus, USA300, 3 h
# [2] = test system: A. baumannii strain 98-37-09; type: cell-based, Acinetobacter baumannii; conditions: for fold induction at 50 µM: Acinetobacter baumannii, 983709, 3 h
# E. cloacae = type: cell-based, Enterobacter cloacae; conditions: for fold induction at 50 µM: Enterobacter cloacae, 3 h
# E. faecium = type: cell-based, Enterococcus faecium; conditions: for fold induction at 50 µM: Enterococcus faecium, 3 h
# P. aeruginosa = type: cell-based, Pseudomonas aeruginosa; conditions: for fold induction at 50 µM: Pseudomonas aeruginosa, 3 h
# K. pneumoniae = type: cell-based, Klebsiella pneumoniae; conditions: for fold induction at 50 µM: Klebsiella pneumoniae, 3 h
# [3] = planktonic E. coli, 50 μM final drug concentration, 384-well, cutoff for positive-scoring molecules 3-fold increase, read-out: AK-based Prestwick Library Screening Results: E. coli (increase in extracellular AK activity)
# [4] = planktonic S. aureus, 50 μM final drug concentration, 384-well, cutoff for positive-scoring molecules 3-fold increase, read-out: AK-based Prestwick Library Screening Results: S. aureus (increase in extracellular AK activity)
# [5] = planktonic A. baumannii, 50 μM final drug concentration, 384-well, cutoff for positive-scoring molecules 3-fold increase, read-out: AK-based Prestwick Library Screening Results: A. baumannii (increase in extracellular AK activity)
# [6] = planktonic E. cloacae, 50 μM final drug concentration, 384-well, cutoff for positive-scoring molecules 3-fold increase, read-out: AK-based Prestwick Library Screening Results: E. cloacae (increase in extracellular AK activity)
# [7] = planktonic E. faecium, 50 μM final drug concentration, 384-well, cutoff for positive-scoring molecules 3-fold increase, read-out: AK-based Prestwick Library Screening Results: E. faecium (increase in extracellular AK activity)
# [8] = planktonic P. aeruginosa, 50 μM final drug concentration, 384-well, cutoff for positive-scoring molecules 3-fold increase, read-out: AK-based Prestwick Library Screening Results: P. aeruginosa (increase in extracellular AK activity)
# [9] = planktonic K. pneumoniae, 50 μM final drug concentration, 384-well, cutoff for positive-scoring molecules 3-fold increase, read-out: AK-based Prestwick Library Screening Results: K. pneumoniae (increase in extracellular AK activity)
# [10] = 50 μM final drug concentration, planktonic, cutoff for positive-scoring molecules 3-fold increase, read-out: AK-based Prestwick Library Screening Results, E. coli (fold increase in extracellular AK activity)
# [11] = 50 μM final drug concentration, planktonic, cutoff for positive-scoring molecules 3-fold increase, read-out: AK-based Prestwick Library Screening Results, S. aureus (fold increase in extracellular AK activity)
# [12] = 50 μM final drug concentration, planktonic, cutoff for positive-scoring molecules 3-fold increase, read-out: AK-based Prestwick Library Screening Results, A. baumannii (fold increase in extracellular AK activity)
# [13] = 50 μM final drug concentration, planktonic, cutoff for positive-scoring molecules 3-fold increase, read-out: AK-based Prestwick Library Screening Results, E. cloacae (fold increase in extracellular AK activity)
# [14] = 50 μM final drug concentration, planktonic, cutoff for positive-scoring molecules 3-fold increase, read-out: AK-based Prestwick Library Screening Results, E. faecium (fold increase in extracellular AK activity)
# [15] = 50 μM final drug concentration, planktonic, cutoff for positive-scoring molecules 3-fold increase, read-out: AK-based Prestwick Library Screening Results, P. aeruginosa (fold increase in extracellular AK activity)
# [16] = 50 μM final drug concentration, planktonic, cutoff for positive-scoring molecules 3-fold increase, read-out: AK-based Prestwick Library Screening Results, K. pneumoniae (fold increase in extracellular AK activity)
compound,measurement,setting,value
CC(C)c1cccc(C(C)C)c1O [Propofol],fold induction at 50 µM,"E. coli; read-out: AK-based Prestwick Library Screening Results, E. coli (fold increase in extracellular AK activity)",1.3
same,fold induction at 50 µM,"[1]; read-out: AK-based Prestwick Library Screening Results, S. aureus (fold increase in extracellular AK activity)",1.2
same,fold induction at 50 µM,"[2]; read-out: AK-based Prestwick Library Screening Results, A. baumannii (fold increase in extracellular AK activity)",1
same,fold induction at 50 µM,"E. cloacae; read-out: AK-based Prestwick Library Screening Results, E. cloacae (fold increase in extracellular AK activity)",1.7
same,fold induction at 50 µM,"E. faecium; read-out: AK-based Prestwick Library Screening Results, E. faecium (fold increase in extracellular AK activity)",1
same,fold induction at 50 µM,"P. aeruginosa; read-out: AK-based Prestwick Library Screening Results, P. aeruginosa (fold increase in extracellular AK activity)",1
same,fold induction at 50 µM,"K. pneumoniae; read-out: AK-based Prestwick Library Screening Results, K. pneumoniae (fold increase in extracellular AK activity)",1.1
Cc1cc(C(C)(C)C)c(O)c(C)c1CC1=NCCN1 [Oxymetazoline hydrochloride],fold induction at 50 µM,E. coli; [3],1.1
same,fold induction at 50 µM,[1]; [4],1.1
same,fold induction at 50 µM,[2]; [5],1.4
same,fold induction at 50 µM,E. cloacae; [6],1.3
same,fold induction at 50 µM,E. faecium; [7],1
same,fold induction at 50 µM,P. aeruginosa; [8],1.2
same,fold induction at 50 µM,K. pneumoniae; [9],1.1
Nc1ccc(S(N)(=O)=O)cc1 [Sulfanilamide],fold induction at 50 µM,E. coli; [10],0.5
same,fold induction at 50 µM,[1]; [11],0.4
same,fold induction at 50 µM,[2]; [12],1.5
same,fold induction at 50 µM,E. cloacae; [13],0.4
same,fold induction at 50 µM,E. faecium; [14],0.9
same,fold induction at 50 µM,P. aeruginosa; [15],0.5
same,fold induction at 50 µM,K. pneumoniae; [16],0.6
COc1ccc2cc(CCC(C)=O)ccc2c1 [Nabumetone],fold induction at 50 µM,E. coli; [10],0.5
same,fold induction at 50 µM,[1]; [11],0.4
same,fold induction at 50 µM,[2]; [12],0.4
same,fold induction at 50 µM,E. cloacae; [13],1
same,fold induction at 50 µM,E. faecium; [14],0.4
same,fold induction at 50 µM,P. aeruginosa; [15],0.6
same,fold induction at 50 µM,K. pneumoniae; [16],0.5
CC(Cc1ccc(O)cc1)NCC(O)c1cc(O)cc(O)c1 (stereo not drawn) [Fenoterol hydrobromide],fold induction at 50 µM,"E. coli; planktonic E. coli, 50 μM final drug concentration, 384-well, […], read-out: AK-based Prestwick Library Screening Results: E. coli (increase in extracellular AK activity)",1.3
same,fold induction at 50 µM,"[1]; planktonic S. aureus, 50 μM final drug concentration, 384-well, […], read-out: AK-based Prestwick Library Screening Results: S. aureus (increase in extracellular AK activity)",1
same,fold induction at 50 µM,"[2]; planktonic A. baumannii, 50 μM final drug concentration, 384-well, […], read-out: AK-based Prestwick Library Screening Results: A. baumannii (increase in extracellular AK activity)",1.3
same,fold induction at 50 µM,"E. cloacae; planktonic E. cloacae, 50 μM final drug concentration, 384-well, […], read-out: AK-based Prestwick Library Screening Results: E. cloacae (increase in extracellular AK activity)",1.4
same,fold induction at 50 µM,"E. faecium; planktonic E. faecium, 50 μM final drug concentration, 384-well, […], read-out: AK-based Prestwick Library Screening Results: E. faecium (increase in extracellular AK activity)",1.1
same,fold induction at 50 µM,"P. aeruginosa; planktonic P. aeruginosa, 50 μM final drug concentration, 384-well, […], read-out: AK-based Prestwick Library Screening Results: P. aeruginosa (increase in extracellular AK activity)",1.1
same,fold induction at 50 µM,"K. pneumoniae; planktonic K. pneumoniae, 50 μM final drug concentration, 384-well, […], read-out: AK-based Prestwick Library Screening Results: K. pneumoniae (increase in extracellular AK activity)",0.9
Nc1c(Br)cc(Br)cc1CN[C@H]1CC[C@H](O)CC1 [Ambroxol hydrochloride],fold induction at 50 µM,"E. coli; planktonic E. coli, 50 μM final drug concentration, cutoff for positive-scoring molecules 3-fold increase, read-out: AK-based Prestwick Library Screening Results, E. coli (increase in extracellular AK activity)",1
same,fold induction at 50 µM,"[1]; planktonic S. aureus, 50 μM final drug concentration, cutoff for positive-scoring molecules 3-fold increase, read-out: AK-based Prestwick Library Screening Results, S. aureus (increase in extracellular AK activity)",1
same,fold induction at 50 µM,"[2]; planktonic A. baumannii, 50 μM final drug concentration, cutoff for positive-scoring molecules 3-fold increase, read-out: AK-based Prestwick Library Screening Results, A. baumannii (increase in extracellular AK activity)",1.2
same,fold induction at 50 µM,"E. cloacae; planktonic E. cloacae, 50 μM final drug concentration, cutoff for positive-scoring molecules 3-fold increase, read-out: AK-based Prestwick Library Screening Results, E. cloacae (increase in extracellular AK activity)",1.5
same,fold induction at 50 µM,"E. faecium; planktonic E. faecium, 50 μM final drug concentration, cutoff for positive-scoring molecules 3-fold increase, read-out: AK-based Prestwick Library Screening Results, E. faecium (increase in extracellular AK activity)",1
same,fold induction at 50 µM,"P. aeruginosa; planktonic P. aeruginosa, 50 μM final drug concentration, cutoff for positive-scoring molecules 3-fold increase, read-out: AK-based Prestwick Library Screening Results, P. aeruginosa (increase in extracellular AK activity)",1.2
same,fold induction at 50 µM,"K. pneumoniae; planktonic K. pneumoniae, 50 μM final drug concentration, cutoff for positive-scoring molecules 3-fold increase, read-out: AK-based Prestwick Library Screening Results, K. pneumoniae (increase in extracellular AK activity)",1
Cn1cnc([N+](=O)[O-])c1Sc1ncnc2nc[nH]c12 [Azathioprine],fold induction at 50 µM,"E. coli; 50 μM final drug concentration, 384-well format, cutoff for positive-scoring molecules 3-fold increase, read-out: AK-based Prestwick Library Screening Results, E. coli (increase in extracellular AK activity)",0.6
same,fold induction at 50 µM,"[1]; 50 μM final drug concentration, 384-well format, cutoff for positive-scoring molecules 3-fold increase, read-out: AK-based Prestwick Library Screening Results, S. aureus (increase in extracellular AK activity)",0.7
same,fold induction at 50 µM,"[2]; 50 μM final drug concentration, 384-well format, cutoff for positive-scoring molecules 3-fold increase, read-out: AK-based Prestwick Library Screening Results, A. baumannii (increase in extracellular AK activity)",0.7
same,fold induction at 50 µM,"E. cloacae; 50 μM final drug concentration, 384-well format, cutoff for positive-scoring molecules 3-fold increase, read-out: AK-based Prestwick Library Screening Results, E. cloacae (increase in extracellular AK activity)",0.8
same,fold induction at 50 µM,"E. faecium; 50 μM final drug concentration, 384-well format, cutoff for positive-scoring molecules 3-fold increase, read-out: AK-based Prestwick Library Screening Results, E. faecium (increase in extracellular AK activity)",0.8
same,fold induction at 50 µM,"P. aeruginosa; 50 μM final drug concentration, 384-well format, cutoff for positive-scoring molecules 3-fold increase, read-out: AK-based Prestwick Library Screening Results, P. aeruginosa (increase in extracellular AK activity)",0.6
same,fold induction at 50 µM,"K. pneumoniae; 50 μM final drug concentration, 384-well format, cutoff for positive-scoring molecules 3-fold increase, read-out: AK-based Prestwick Library Screening Results, K. pneumoniae (increase in extracellular AK activity)",0.5
COc1cc(C(=O)OCCCN2CCCN(CCCOC(=O)c3cc(OC)c(OC)c(OC)c3)CC2)cc(OC)c1OC [Dilazep dihydrochloride],fold induction at 50 µM,E. coli; [3],1.5
same,fold induction at 50 µM,[1]; [4],1.2
same,fold induction at 50 µM,[2]; [5],1.4
same,fold induction at 50 µM,E. cloacae; [6],1.1
same,fold induction at 50 µM,E. faecium; [7],1.1
same,fold induction at 50 µM,P. aeruginosa; [8],1.3
same,fold induction at 50 µM,K. pneumoniae; [9],1.4
Ifenprodil tartrate,AK-based Prestwick Library Screening Results: E. coli (increase in extracellular AK activity),"E. coli; planktonic E. coli, 50 μM final drug concentration, 384-well, cutoff for positive-scoring molecules 3-fold increase",1.2
same,AK-based Prestwick Library Screening Results: S. aureus (increase in extracellular AK activity),"[1]; planktonic S. aureus, 50 μM final drug concentration, 384-well, cutoff for positive-scoring molecules 3-fold increase",1.1
same,AK-based Prestwick Library Screening Results: A. baumannii (increase in extracellular AK activity),"[2]; planktonic A. baumannii, 50 μM final drug concentration, 384-well, cutoff for positive-scoring molecules 3-fold increase",1.4
same,AK-based Prestwick Library Screening Results: E. cloacae (increase in extracellular AK activity),"E. cloacae; planktonic E. cloacae, 50 μM final drug concentration, 384-well, cutoff for positive-scoring molecules 3-fold increase",1.3
same,AK-based Prestwick Library Screening Results: E. faecium (increase in extracellular AK activity),"E. faecium; planktonic E. faecium, 50 μM final drug concentration, 384-well, cutoff for positive-scoring molecules 3-fold increase",1.0
same,AK-based Prestwick Library Screening Results: P. aeruginosa (increase in extracellular AK activity),"P. aeruginosa; planktonic P. aeruginosa, 50 μM final drug concentration, 384-well, cutoff for positive-scoring molecules 3-fold increase",1.2
same,AK-based Prestwick Library Screening Results: K. pneumoniae (increase in extracellular AK activity),"K. pneumoniae; planktonic K. pneumoniae, 50 μM final drug concentration, 384-well, cutoff for positive-scoring molecules 3-fold increase",1.3
